Series [1] deals with Endothelial cells isolated from diabetics. Description: in vitro sprouting model with endothelial cells isolated from diabetics. Type of series: cell-based. From the text:
In addition, there is an optimal VEGF concentration to induce most sprouts.
Endothelial cells isolated from diabetics produce more sprouts in the presence of a combination of both gamma-secretase inhibitors with VEGF. (FIG. 2, *P<0.05) than with either of them alone, which implies the need of a combination of both growth factor and DAPT.

Series [2] concerns cells in small intestines. As to the kind of experiment: in vivo effect of DAPT on the cells in small intestines (H&E, alcian blue, Ki67, HES-1 staining). The arrangement: species or system mice. From the text:
FIG. 6 is a series of photomicrographs showing the effect of DAPT on gastrointestinal tissue. In vivo model was used to test the effect of DAPT delivered from alginate gel system and from intraperitoneal injection on the cells in small intestines. gel: alginate gel. ip: intraperitoneal injection. H&E, alcian blue, Ki67 and HES-1 are the four different staining methods to characterize the crypt cells in small intestines. Ki-67 was used to stain the proliferative cells. Loss of Notch signaling can alter the proliferation rate of crypt cells. HES-1 staining was to examine the expression of a known Notch target gene in crypts. Alcian blue staining was to examine the deposition of glycosaminoglycan molecules. Loss of Notch signaling can result in more deposition of glycosaminoglycan molecules. Expression of HES-1 (hairy and enhancer of split 1), a member of basic helix-loop-helix family of transcription factors and a known Notch target gene in crypts was examined. Loss of Notch signaling can alter the proliferation rate of crypt cells, as shown by Ki-67 staining the proliferative cells. In addition, Notch inhibition has been reported to alter the balance between proliferative crypt cells and goblet cells, resulting in more deposition of glycosaminoglycan molecules, as characterized by alcian blue staining.

Where [3] appears, read: DAPT delivered via intraperitoneal injection.

As for VEGF, the “concentration of VEGF that gives the most sprouts if used alone” value in series [1] (VEGF alone, FIG. 3) was determined as 50 ng/mL. Moreover, the “response to VEGF, capability of forming sprouts” value in series [1] (endothelial cells from diabetics compared to age-matched non-diabetics, FIG. 1, P<0.05) is “reduced response”.
For the compound `C[C@H](NC(=O)Cc1cc(F)cc(F)c1)C(=O)N[C@H](C(=O)OC(C)(C)C)c1ccccc1` [DAPT, N—[N-(3,5-Difluorophenacetyl-L-alanyl)]-S-phenylglycine t-butyl ester], in series [2] (DAPT delivered from alginate gel system, compared with intraperitoneal injection, FIG. 6), the “cell differentiation at distant sites (small intestines)” value is “does not alter cell differentiation at distant sites as much”. Further, the region of effects entry in series [2] (DAPT delivered from the gel system) was “only has effects in the local region”. For the same compound, in series [2] (setting [3]), the “Notch target gene expression, HES-1 staining” value is given as “downregulation of Notch target gene expression”; the “glycosaminoglycans, alcian blue staining” value is listed as “presence of extra glycosaminoglycans”; the “intestinal structure, H&E staining” value was “disrupts normal intestinal structure”; the “proliferating cells, Ki67 staining” value is given as “loss of proliferating cells”. In addition, in series [2] (DAPT delivered via intraperitoneal injection, goes into the systemic circulation), the “effects at distant organs (e.g., small intestines)” value is “led to adverse effects at distant organs”.

The record behind these values is patent publication US9539309B2, “Controlled release of growth factors and signaling molecules for promoting angiogenesis” (President and Fellows of Harvard College, priority 2008, dated 2017).
